Measured values taken from US20140275276A1, “PHARMACEUTICAL COMPOSITION OF S-KETAMINE HYDROCHLORIDE” (JANSSEN PHARMACEUTICA NV, priority 2013, published 2014).

Tests used:
Assay type in all cases: cell-based
Pseudomonas aeruginosa = test: Microbial challenge test / Full AET challenge test; conditions: spike 10^5-10^6 CFU/ml, room temperature
Description: (§1) A challenge test was initiated to investigate whether the formulation could prevent microorganisms from proliferating. The challenge test consisted of challenging the formulation with a prescribed inoculum of microorganisms. The inoculated formulation was then stored at room temperature and at specified time intervals a sample was withdrawn to count the microorganisms in the sample.
(§2) The formulations listed in Table 3 were additionally subjected to a Full AET challenge, with results for the individual formulations are shown in Tables 5-8, below. Additionally, Table 9 below, provides results for a Full AET challenge of a reference formulation containing 0.00 mg/mL S-ketamine hydrochloride, denatonium benzoate (to mimic the taste of the S-ketamine HCl formulation(s)), and adjusted to pH 5.21 with 1N NaOH.

Candida albicans = test: Microbial challenge test / Full AET challenge test; conditions: spike 10^5-10^6 CFU/ml, room temperature
Description: as §1, §2

Aspergillus brasiliensis = test: Microbial challenge test / Full AET challenge test; conditions: spike 10^5-10^6 CFU/ml, 28 days of incubation at room temperature
Description: as §1, §2

Staphylococcus aureus = test: Microbial challenge test / Full AET challenge test; conditions: spike 10^5-10^6 CFU/ml, room temperature
Description: as §1, §2

Escherichia coli = test: Microbial challenge test / Full AET challenge test; conditions: spike 10^5-10^6 CFU/ml, room temperature
Description: as §1, §2

[1] = tested on: environmental isolate Staphylococcus haemolyticus; test: Microbial challenge test; conditions: spike 10^5-10^6 CFU/ml, room temperature
Description: as §1

[2] = tested on: environmental Micrococcus Luteus; test: Full AET challenge test; conditions: spike 10^5-10^6 CFU/ml, room temperature
Description: as §1, §2

Structure (SMILES): CN[C@]1(c2ccccc2Cl)CCCCC1=O.Cl [S-ketamine hydrochloride, (S)-2-(2-chlorophenyl)-2-(methylamino)cyclohexanone hydrochloride]
- Antimicrobial effect in words (change of the original spike) (Pseudomonas aeruginosa): strong antimicrobial properties
- Antimicrobial effect in words (change of the original spike) (Candida albicans): strong antimicrobial properties
- Antimicrobial effect in words (change of the original spike) (Aspergillus brasiliensis): some inhibitory activity
- Antimicrobial effect in words (change of the original spike) (Staphylococcus aureus): strong antimicrobial properties
- Antimicrobial effect in words (change of the original spike) (Escherichia coli): strong antimicrobial properties
- Antimicrobial effect in words (change of the original spike) [1]: strong antimicrobial properties
- Antimicrobial effect in words (change of the original spike) [2]: strong antimicrobial properties
